Source: patent publication US5486526A, “Histamine H3 -receptor antagonists and therapeutic uses thereof” (The University of Toledo, priority 1993, dated 1996)
Read-outs that look alike come from different tables or passages of the source. Ends that are not written are not given here.

Columns and labels:
histamine H3 receptor = molecular target: T1, histamine H3 receptor (Rattus norvegicus, UniProt Q9QYN8); assay: Inhibition of [^3 H]-N-alpha-methylhistamine binding to rat brain membranes; conditions: for binding to the histamine H3 -receptor (in words): discussion of Table I
T1 construct: from tissue
Description: A series of compounds were prepared and tested for their histamine H3 receptor antagonist activity. The antagonist activity of the compounds was detected by observing inhibition of (^3 H)-N-(alpha)methylhistamine activity on rat brain membranes.
The various compounds were tested for the ability to bind to the histamine H3 receptor. A binding assay in a rat brain membrane preparation, based on inhibition of binding of [^3 H]-N-alpha-methylhistamine using excess unlabeled alpha-methylhistamine to account for nonspecific binding, was developed.

Adenosine = conditions: reference compound; cited from earlier work
Quisqualate = conditions: reference compound; cited from earlier work
Benzodiazephine = conditions: reference compound; cited from earlier work
ANF (rat) = conditions: reference compound; cited from earlier work
EGF = conditions: reference compound; cited from earlier work
PCP = conditions: reference compound; cited from earlier work
Potassium = conditions: reference compound; cited from earlier work
Angiotensin = conditions: reference compound; cited from earlier work
Serotonin 2 = conditions: reference compound; cited from earlier work
Serotonin 1 = conditions: reference compound; cited from earlier work
Dopamine 2 = conditions: reference compound; cited from earlier work
Substance P = conditions: reference compound; cited from earlier work
NMDA = conditions: reference compound; cited from earlier work
NPY = conditions: reference compound; cited from earlier work
Calcium = conditions: reference compound; cited from earlier work
Male albino CF-1 mice = assay: Behavioral effects in mice: sleep induced by (R)α-methylhistamine; format: in vivo, mouse; conditions: i.p.
Description: The overall strategy to show central nervous system antagonist activity was to challenge effects of the agonist (R)α-methylhistamine. Therefore, the first objective was to establish a dose response curve for behavioral effects of (R)α-methylhistamine. Male albino CF-1 mice weighing 20-30 g were used. Saline or (R)α-methylhistamine in saline was injected i.p. in a volume ≤0.4 ml. […] Animals were scored for the presence (1) or absence (0) of the behavior and the results were reported as the accumulated score for a 30 minute period (maximum score=9).
To assess the effects of antagonists, they were administered with the (R)α-methylhistamine in saline.

Substance K = conditions: reference compound; cited from earlier work
Neurotensin = conditions: reference compound; cited from earlier work
Arg-Vasopressin V1 = conditions: reference compound; cited from earlier work
MK-801 = conditions: reference compound; cited from earlier work
Somatostatin = conditions: reference compound; cited from earlier work
VIP = conditions: reference compound; cited from earlier work
Bombesin = conditions: reference compound; cited from earlier work
NGF = conditions: reference compound; cited from earlier work
[1] = ^3 HN^α -methylhistamine as radioligand, rat brain membranes, first part of Table I, read-out: IC50
[2] = ^3 HN^α -methylhistamine as radioligand, rat brain membranes, second part of Table I, read-out: IC50

T1 sequence (Q9QYN8 whole entry): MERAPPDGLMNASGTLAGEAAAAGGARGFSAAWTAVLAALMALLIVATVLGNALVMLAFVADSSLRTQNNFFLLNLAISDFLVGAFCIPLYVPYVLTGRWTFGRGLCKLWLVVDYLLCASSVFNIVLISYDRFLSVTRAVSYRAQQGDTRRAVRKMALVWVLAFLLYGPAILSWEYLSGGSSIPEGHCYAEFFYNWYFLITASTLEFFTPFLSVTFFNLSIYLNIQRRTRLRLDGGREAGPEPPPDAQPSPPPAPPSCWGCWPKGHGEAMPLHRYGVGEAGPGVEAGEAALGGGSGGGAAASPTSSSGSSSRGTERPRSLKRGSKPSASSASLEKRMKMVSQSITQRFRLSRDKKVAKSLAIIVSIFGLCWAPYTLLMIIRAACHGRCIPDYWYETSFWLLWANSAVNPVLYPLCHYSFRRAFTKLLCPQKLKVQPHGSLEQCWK

For `N#CN=C(NC1CCCCC1)N1CCC(c2c[nH]cn2)CC1` [Compound 48], the “binding to the histamine H3 -receptor (in words)” value (“binding to the histamine H3” below) (histamine H3 receptor) was “ineffective at binding to the H3 -receptor”.
For `CCNC(=O)[C@H]1O[C@@H](n2cnc3c(N)ncnc32)[C@H](O)[C@@H]1O` [NECA], the Ki (Adenosine) is listed as 120 nM.
`O=C(CC1CCCCC1)N1CCC(c2c[nH]cn2)CC1` [Compound 3] showed an IC50 (histamine H3 receptor) of 19 ± 12 nM.
In the case of `N[C@@H](Cn1oc(=O)[nH]c1=O)C(=O)O` [Quisqualic Acid], the Ki (Quisqualate) is given as 11.8 nM.
Molecule `O=C(CCc1ccccc1)N1CCC(c2c[nH]cn2)CC1` [Compound 7] has an IC50 (histamine H3 receptor; [1]) of 34.1 ± 3.6 nM.
In the case of `O=C1CN=C(c2ccccc2Cl)c2cc([N+](=O)[O-])ccc2N1` [Clonazepam], the Ki (Benzodiazephine) is given as 3.4 nM.
With `O=C(/C=C/c1ccccc1)N1CCC(c2c[nH]cn2)CC1` [Compound 10] the IC50 (histamine H3 receptor; [2]) was 570 ± 172 nM.
For `N#CN=C(Nc1ccc(-c2c[nH]cn2)cc1)NC1CCCCC1` [Compound 50], the “binding to the histamine H3” value (histamine H3 receptor) was “ineffective at binding to the H3 -receptor”.
Molecule `O=C(CCC1CCCCC1)N1CCC(c2c[nH]cn2)CC1` [Compound 6] has an IC50 (histamine H3 receptor; [1]) of 34 ± 1.4 nM.
Work on `O=C(CCCC1CCCCC1)N1CCC(c2c[nH]cn2)CC1` [Compound 12] yielded an IC50 (histamine H3 receptor; [1]) of 41.4 ± 9 nM.
For ANP: Reference Compound, the Ki (ANF (rat)) is given as 0.15 nM.
In the case of EGF: Reference Compound, the Ki (EGF) is listed as 0.24 nM.
With `O=C(c1ccccc1)N1CCC(c2c[nH]cn2)CC1` [Compound 13] the IC50 (histamine H3 receptor; [1]) was 151 ± 44 nM.
For `c1ccc(C2(N3CCCCC3)CCCCC2)cc1` [PCP], the Ki (PCP) is listed as 62.3 nM.
For “Apamin: Reference Compound (CNCKAPETALCARRCQQH; ends and bridges not checked; cysteine pairing not given here; UniProt P01500 28-45, looked up)”, the Ki (Potassium) is given as 0.05 nM.
In the case of Angiotensin II: Reference Compound, the Ki (Angiotensin) is listed as 0.2 nM.
In the case of `NCCc1c[nH]c2ccc(O)cc12` [Serotonin], the Ki (Serotonin 2) is listed as 531 nM and the Ki (Serotonin 1) is listed as 4.6 nM.
`O=C(C(c1ccccc1)C1CCCCC1)N1CCC(c2c[nH]cn2)CC1` (stereo not shown) [Compound 11] showed an IC50 (histamine H3 receptor; [2]) of 260 ± 38 nM.
For `O=C(CC=C(c1ccccc1)c1ccccc1)N1CCC(c2c[nH]cn2)CC1` [Compound 54], the IC50 (histamine H3 receptor; [1]) was 1000 nM.
In the case of `O=C(CCCN1CCC2(CC1)C(=O)NCN2c1ccccc1)c1ccc(F)cc1` [Spiperone], the Ki (Dopamine 2) is listed as 0.08 nM.
Molecule `CC(C)(C)OC(=O)N1CCC(c2c[nH]cn2)CC1` [Compound 2] has an IC50 (histamine H3 receptor) of 243.5 ± 1.9 nM.
In the case of Substance P: Reference Compound, the Ki (Substance P) is listed as 0.08 nM.
With `CNC(=S)NCCCCc1cnc[nH]1` [Burimamide, reference compound] the IC50 (histamine H3 receptor; [1]) was 156 ± 57 nM.
In the case of `N#CN=C(Oc1ccccc1)N1CCC(c2c[nH]cn2)CC1` [Compound 47], the IC50 (histamine H3 receptor; [1]) is reported as 231 nM and the “binding to the histamine H3” value (histamine H3 receptor) is reported as “ineffective at binding to the H3 -receptor”.
In the case of `CN[C@H](CC(=O)O)C(=O)O` [NMDA], the Ki (NMDA) is listed as 359 nM.
For Neuropeptide Y: Reference Compound, the Ki (NPY) is listed as 0.5 nM.
`O=C(CCCc1ccccc1)N1CCC(c2c[nH]cn2)CC1` [Compound 5] gave an IC50 (histamine H3 receptor; [1]) of 262 ± 9 nM.
For `COC(=O)C1=C(C)NC(C)=C(C(=O)OC)C1c1ccccc1[N+](=O)[O-]` [Nifedipine], the Ki (Calcium) is listed as 1.6 nM.
In the case of `C[C@@H](N)Cc1c[nH]cn1` [(R)α-methylhistamine], the sleeping (Male albino CF-1 mice; 15 to 35 mg/kg, one hour after injection) is reported as “dose-dependent (range of 15 to 35 mg/kg) increase in sleeping one hour after injection” and the sleeping (Male albino CF-1 mice; 30 minutes after injection) is reported as “evident at 30 minutes after injection”.
For Neurokinin A: Reference Compound, the Ki (Substance K) is listed as 2.75 nM.
Work on `O=C(CC(c1ccccc1)c1ccccc1)N1CCC(c2c[nH]cn2)CC1` [Compound 52] yielded an IC50 (histamine H3 receptor; [1]) of 93.1 nM.
In the case of `CNCCc1c[nH]cn1` [[^3 H]-N-alpha-methylhistamine, reference compound], the Kd (histamine H3 receptor) is reported as 0.19 nM.
For Neurotensin, the Ki (Neurotensin) is given as 1.23 nM.
In the case of arg-Vasopressin: Reference Compound, the Ki (Arg-Vasopressin V1) is listed as 4.9 nM.
In the case of `O=C(CCC(c1ccccc1)c1ccccc1)N1CCC(c2c[nH]cn2)CC1` [Compound 53], the IC50 (histamine H3 receptor; [1]) is reported as 124 nM.
For `C[C@]12N[C@H](Cc3ccccc31)c1ccccc12` [MK801], the Ki (MK-801) is listed as 4.3 nM.
In the case of Somatostatin: Reference Compound, the Ki (Somatostatin) is listed as 0.03 nM.
In the case of VIP: Reference Compound, the Ki (VIP) is given as 1.53 nM.
For Tyr4-Bombesin, the Ki (Bombesin) is listed as 0.55 nM.
In the case of NGF: Reference Compound, the Ki (NGF) is listed as 0.8 nM.
